According to US7417156B2, “Orally active, antimalarial, anticancer, artemisinin-derived trioxane dimers” (Johns Hopkins University, priority 2002, dated 2008):

Experiments:
NCI-H522 = assay: NCI 60 cell line panel screen (SRB); assay type: cell-based, human
TK-10 = assay: NCI 60 cell line panel screen (SRB); assay type: cell-based, human
NCI/ADR-RES = assay: NCI 60 cell line panel screen (SRB); assay type: cell-based, human
RPMI-8226 = assay: NCI 60 cell line panel screen (SRB); assay type: cell-based, human
IGROVI = assay: NCI 60 cell line panel screen (SRB); assay type: cell-based, human
OVCAR-5 = assay: NCI 60 cell line panel screen (SRB); assay type: cell-based, human
HS 578T = assay: NCI 60 cell line panel screen (SRB); assay type: cell-based, human
SF-268 = assay: NCI 60 cell line panel screen (SRB); assay type: cell-based, human
KM12 = assay: NCI 60 cell line panel screen (SRB); assay type: cell-based, human
CCRF-CEM = assay: NCI 60 cell line panel screen (SRB); assay type: cell-based, human; settings: CCRF-CEM (Leukemia)
A549/ATCC = assay: NCI 60 cell line panel screen (SRB); assay type: cell-based, human
BT-549 = assay: NCI 60 cell line panel screen (SRB); assay type: cell-based, human
UACC-257 = assay: NCI 60 cell line panel screen (SRB); assay type: cell-based, human
U251 = assay: NCI 60 cell line panel screen (SRB); assay type: cell-based, human
T-47D = assay: NCI 60 cell line panel screen (SRB); assay type: cell-based, human
HOP-92 = assay: NCI 60 cell line panel screen (SRB); assay type: cell-based, human
HCT-15 = assay: NCI 60 cell line panel screen (SRB); assay type: cell-based, human
NCI-H322M = assay type: cell-based
786-0 = assay: NCI 60 cell line panel screen (SRB); assay type: cell-based, human
MDA-MB231/ATCC = assay: NCI 60 cell line panel screen (SRB); assay type: cell-based, human
NCI-H23 = assay: NCI 60 cell line panel screen (SRB); assay type: cell-based, human
M14 = assay: NCI 60 cell line panel screen (SRB); assay type: cell-based, human
EKVX = assay: NCI 60 cell line panel screen (SRB); assay type: cell-based, human
ACHN = assay: NCI 60 cell line panel screen (SRB); assay type: cell-based, human
SK-MEL-28 = assay: NCI 60 cell line panel screen (SRB); assay type: cell-based, human
MCF7 = assay: NCI 60 cell line panel screen (SRB); assay type: cell-based, human
COLO 205 = assay: NCI 60 cell line panel screen (SRB); assay type: cell-based, human

CC1CCC2C(C)C(CC(COC(=O)c3cc[n+]([O-])cc3)CC3OC4OC5(C)CCC6C(C)CCC(C3C)C46OO5)OC3OC4(C)CCC1C32OO4 (stereo not shown) [Compound 13, bis-trioxane primary alcohol isonicotinate N-oxide]
Log10TGI50 (NCI-H522; NCI-H522 (Non-Small Cell Lung Cancer), TGI: PG=0): −4.60 log10M | Log10LC50 (NCI-H522; NCI-H-522 (Non-Small Cell Lung Cancer), LC50: PG=−50): >−4.30 log10M | Log10GI50 (TK-10; Renal Cancer, TK-10): <−8.30 | Log10LC50 (TK-10; TK-10 (Renal Cancer), LC50: PG=−50): −4.53 log10M | Log10TGI50 (TK-10; TK-10 (Renal Cancer), TGI: PG=0): −5.34 log10M | Log10GI50 (NCI/ADR-RES; Breast Cancer, NCI/ADR-RES): −7.60 | Log10LC50 (NCI/ADR-RES; NCI/ADR-RES (Breast Cancer), LC50: PG=−50): −4.65 log10M | Log10TGI50 (NCI/ADR-RES; NCI/ADR-RES (Breast Cancer), TGI: PG=0): −5.18 log10M | Log10GI50 (RPMI-8226; Leukemia, RPMI-8226): <−8.30 | Log10LC50 (RPMI-8226; RPMI-8226 (Leukemia), LC50: PG=−50): >−4.30 log10M | Log10TGI50 (RPMI-8226; RPMI-8226 (Leukemia), TGI: PG=0): >−4.30 log10M | Log10LC50 (IGROVI; IGROVI (Ovarian Cancer), LC50: PG=−50): >−4.30 log10M | Log10TGI50 (IGROVI; IGROVI (Ovarian Cancer), TGI: PG=0): >−4.30 log10M | Log10GI50 (IGROVI; Ovarian Cancer, IGROVI): −5.36 | Log10LC50 (OVCAR-5; OVCAR-5 (Ovarian Cancer), LC50: PG=−50): −4.66 log10M | Log10TGI50 (OVCAR-5; OVCAR-5 (Ovarian Cancer), TGI: PG=0): −5.14 log10M | Log10GI50 (OVCAR-5; Ovarian Cancer, OVCAR-5): <−8.30 | Log10GI50 (HS 578T; Breast Cancer, HS 578T): <−8.30 | Log10LC50 (HS 578T; HS 578T (Breast Cancer), LC50: PG=−50): −4.35 log10M | Log10TGI50 (HS 578T; HS 578T (Breast Cancer), TGI: PG=0): −5.00 log10M | Log10GI50 (SF-268; CNS Cancer, SF-268): −5.29 | Log10LC50 (SF-268; SF-268 (CNS Cancer), LC50: PG=−50): −4.31 log10M | Log10TGI50 (SF-268; SF-268 (CNS Cancer), TGI: PG=0): −4.80 log10M | Log10GI50 (KM12; Colon Cancer, KM12): <−8.30 | Log10LC50 (KM12; KM12 (Colon Cancer), LC50: PG=−50): −4.37 log10M | Log10TGI50 (KM12; KM12 (Colon Cancer), TGI: PG=0): −5.04 log10M | Log10LC50 (CCRF-CEM; LC50: PG=−50): >−4.30 log10M | Log10TGI50 (CCRF-CEM; TGI: PG=0): >−4.30 log10M | Log10LC50 (A549/ATCC; A549/ATCC (Non-Small Cell Lung Cancer), LC50: PG=−50): >−4.30 log10M | Log10TGI50 (A549/ATCC; A549/ATCC (Non-Small Cell Lung Cancer), TGI: PG=0): −4.61 log10M | Log10GI50 (A549/ATCC; Non-Small Cell Lung Cancer, A549/ATCC): −5.98 | Log10LC50 (BT-549; BT-549 (Breast Cancer), LC50: PG=−50): −4.61 log10M | Log10TGI50 (BT-549; BT-549 (Breast Cancer), TGI: PG=0): −5.07 log10M | Log10GI50 (BT-549; Breast Cancer, BT-549): <−8.30 | Log10GI50 (UACC-257; Melanoma, UACC-257): −5.15 | Log10LC50 (UACC-257; UACC-257 (Melanoma), LC50: PG=−50): >−4.30 log10M | Log10TGI50 (UACC-257; UACC-257 (Melanoma), TGI: PG=0): −4.65 log10M | Log10GI50 (U251; CNS Cancer, U251): <−8.30 | Log10LC50 (U251; U251 (CNS Cancer), LC50: PG=−50): −4.69 log10M | Log10TGI50 (U251; U251 (CNS Cancer), TGI: PG=0): −5.08 log10M | Log10GI50 (T-47D; Breast Cancer, T-47D): <−8.30 | Log10LC50 (T-47D; T-47D (Breast Cancer), LC50: PG=−50): >−4.30 log10M | Log10TGI50 (T-47D; T-47D (Breast Cancer), TGI: PG=0): −5.36 log10M | Log10LC50 (HOP-92; HOP-92 (Non-Small Cell Lung Cancer), LC50: PG=−50): −4.74 log10M | Log10TGI50 (HOP-92; HOP-92 (Non-Small Cell Lung Cancer), TGI: PG=0): −5.27 log10M | Log10GI50 (HOP-92; Non-Small Cell Lung Cancer, HOP-92): −8.04 | Log10GI50 (HCT-15; Colon Cancer, HCT-15): <−8.30 | Log10LC50 (HCT-15; HCT-15 (Colon Cancer), LC50: PG=−50): −4.81 log10M | Log10TGI50 (HCT-15; HCT-15 (Colon Cancer), TGI: PG=0): −8.19 log10M | Log10LC50 (NCI-H322M; NCI-H322M (Non-Small Cell Lung Cancer), LC50: PG=−50): −4.59 log10M | Log10TGI50 (NCI-H322M; NCI-H322M (Non-Small Cell Lung Cancer), TGI: PG=0): −5.06 log10M | Log10GI50 (NCI-H322M; Non-Small Cell Lung Cancer, NCI-H322M): −6.26 | Log10LC50 (786-0; 786-0 (Renal Cancer), LC50: PG=−50): −4.43 log10M | Log10TGI50 (786-0; 786-0 (Renal Cancer), TGI: PG=0): −4.94 log10M | Log10GI50 (786-0; Renal Cancer, 786-0): −7.81 | Log10GI50 (MDA-MB231/ATCC; Breast Cancer, MDA-MB231/ATCC): −7.64 | Log10LC50 (MDA-MB231/ATCC; MDA-MB231/ATCC (Breast Cancer), LC50: PG=−50): −4.77 log10M | Log10TGI50 (MDA-MB231/ATCC; MDA-MB231/ATCC (Breast Cancer), TGI: PG=0): −6.32 log10M | Log10LC50 (NCI-H23; NCI-H23 (Non-Small Cell Lung Cancer), LC50: PG=−50): −4.62 log10M | Log10TGI50 (NCI-H23; NCI-H23 (Non-Small Cell Lung Cancer), TGI: PG=0): −5.17 log10M | Log10GI50 (NCI-H23; Non-Small Cell Lung Cancer, NCI-H23): <−8.30 | Log10LC50 (M14; M14 (Melanoma), LC50: PG=−50): >−4.30 log10M | Log10TGI50 (M14; M-14 (Melanoma), TGI: PG=0): −4.75 log10M | Log10GI50 (M14; Melanoma, M14): −5.81 | Log10LC50 (EKVX; EKVX (Non-Small Cell Lung Cancer), LC50: PG=−50): −4.59 log10M | Log10TGI50 (EKVX; EKVX (Non-Small Cell Lung Cancer), TGI: PG=0): −5.08 log10M | Log10GI50 (EKVX; Non-Small Cell Lung Cancer, EKVX): −8.19 | Log10LC50 (ACHN; ACHN (Renal Cancer), LC50: PG=−50): −4.79 log10M | Log10TGI50 (ACHN; ACHN (Renal Cancer), TGI: PG=0): −6.57 log10M | Log10GI50 (ACHN; Renal Cancer, ACHN): <−8.30 | Log10GI50 (SK-MEL-28; Melanoma, SK-MEL-28): −5.13 | Log10LC50 (SK-MEL-28; SK-MEL-28 (Melanoma), LC50: PG=−50): −4.34 log10M | Log10TGI50 (SK-MEL-28; SK-MEL-28 (Melanoma), TGI: PG=0): −4.73 log10M | Log10GI50 (MCF7; Breast Cancer, MCF7): <−8.30 | Log10LC50 (MCF7; MCF7 (Breast Cancer), LC50: PG=−50): −4.44 log10M | Log10TGI50 (MCF7; MCF7 (Breast Cancer), TGI: PG=0): −5.03 log10M | Log10LC50 (COLO 205; COLO 205 (Colon Cancer), LC50: PG=−50): >−4.30 log10M | Log10TGI50 (COLO 205; COLO 205 (Colon Cancer), TGI: PG=0): >−4.30 log10M | Log10GI50 (COLO 205; Colon Cancer, COLO 205): <−8.30
